Here are results for 2 compounds from patent US12390505B2, “Composition for preventing or treating obesity or diabetes, comprising acanthopanax senticosus extract and garcinia cambogia extract or compound isolated therefrom” (KOREA RESEARCH INSTITUTE OF BIOSCIENCE AND BIOTECHNOLOGY, priority 2020, dated 2025).

Where two headings read alike, the source gives them in different places.

In data set [1] the test system is L6 myotube cells. The data set is described as follows: Glucose uptake (2-deoxy-D-[14C]-glucose) in muscle cells. The data set is classed as cell-based, rat. On the procedure: (§1) To differentiate rat myoblast L6 cells into myotubes, it was suspended at a concentration of 1×10^4 cells/ml in MEM medium (Welgene) supplemented with 10% of Fetal Bovine Serum and 1% of antibiotic antimycotic, and then 500 μl each was inoculated into a 24-well plate and cultured to the full for 2 days. […] The differentiated myotube cells were replaced with serum-free medium before the experiment and left for 6 hours. Myotube cells were pretreated with 100 nM porcine-derived insulin and 20 μM cytochalacin B for 15 minutes, and other samples were pretreated for 30 minutes. […] After the reaction, the cells were washed twice with Krebs-Ringer buffer (20 mM Tris-HCl, 2 mM EDTA, and 0.5 mM EGTA, pH 7.4), and the cells were lysed with 0.5N NaOH and mixed with a scintillation cocktail. The intracellular radiation dose of 2-DG was measured using a liquid scintillation counter (Tri-Carb 2900TR liquid scintillation analyzer, Perkin Elmer).

For data set [2], the system named is 3T3-L1 cells. The data set is described as follows: Triglyceride production, Adipogenesis Colorimetric Assay. It is filed as cell-based, mouse.
Method: 3T3-L1 cells, which are preadipocytes of mice, are suspended at a concentration of 2×10^4 cells/ml using Dulbecco's Modified EaDCRT media (DMEM, Gibco) containing 10% of Bovine Calf Serum as a growth media (GM), and then inoculated into 24-well plates at 1 ml each, and then adipocytes were cultured for 3 days to become confluent. In order to induce adipocyte differentiation, DMEM media containing 10% FBS was replaced with differentiation media (DM) supplemented with insulin, dexamethasone and 3-isobutyl-1-methylanthin (IBMX) and cultured for 2 days. After 2 days, DMEM media containing 10% FBS containing insulin was added to the existing medium. […] After differentiation was induced under the same conditions as above, triglyceride (TG) produced was measured using an Adipogenesis Colorimetric Assay (Biovision) kit. According to the protocol provided in the kit, after washing the cells once with PBS, 100 μl of Lipid Extract solution was added to scrape the cells, and the cells were placed at 90° C. for 30 minutes. Thereafter, the supernatant, which had turned cloudy, was left at room temperature until it became transparent, and then 50 μl of the supernatant was obtained and transferred to a 96-well plate. After adding 2 μl of lipase and reacting for 10 minutes, 50 μl of the reaction mixture containing the probe and enzyme mix was added and reacted, and the degree of color development was measured at 570 nm with a microplate meter. The concentration of triglyceride produced in the cells was determined using a standard curve for each concentration according to the triglyceride sample included in the kit.
The test system of data set [3] is 3T3-L1 cells. Particulars: for Cell Viability: mouse.
Method: DMEM medium (Gibco) supplemented with 10% Bovine Calf Serum and 1% Penicillin-streptomycin was used as a growth media (GM) to culture 3T3-L1 cells, which are mouse preadipocytes. The suspension was suspended at a concentration of 2×10^3 cells/ml, and 100 μl each was inoculated into a 96-well plate, and the cells were cultured to full capacity for 3 days. In order to induce fat differentiation, DMEM medium containing 10% FBS was replaced with a differentiation media (DM) supplemented with insulin, dexamethasone and 3-isobutyl-1-methylxanthine (IBMX), and cultured for 2 days. After 2 days, DMEM medium containing 10% FBS containing insulin was added to the existing medium. […] As described in the CCK-8 (Dojindo) kit for counting cells, 10 μl of CCK-8 solution was mixed with 90 μl of medium and added at 100 μl per well. After reacting for at least 30 minutes to 1 hour, absorbance was measured at 450 nm.
In data set [4] the test system is L6 myotube cells. Briefly: Isobologram analysis of glucose absorption capacity, chiisanogenin and Ca-HCA. The data set is classed as cell-based. The note with it: Rattus norvegicus; differentiated L6 myotube cells, single compound. The procedure: as §1
Data set [5] in a line: Example 12 HFD mice: oral glucose tolerance test. It is filed as in vivo, mouse. The note with it: oral once daily 10 weeks, 50 mg/kg. The procedure: After adapting 8-week-old male C57b1/6 J mice to the basic diet (AIN-76A diet) for 2 weeks, and consuming Diet Induced Obesity Diet Formulas (D12451) 60 kcal % HFD diet for 2 weeks from 10 weeks of age, and then the test drug was administered when the average body weight reached 28 g or more. The animal breeding room environment of the mouse was maintained in a constant temperature (25±2° C.), constant humidity (50±5%) and a 12-hour photoperiod (light on 07:00˜19:00) in which the light and shade were controlled in an SPF environment. […] The test drug was dispersed in 0.5% Carboxymethyl cellulose (CMC) and administered in a volume of 0.2 ml, and the drug was administered orally by force into the stomach using a metal Zonde for oral administration.
[…] Blood to be used for blood glucose measurement was collected from the tail vein of a mouse, and blood glucose was measured using a serum analyzer (Accutrend plus GCTL Cobas Roche, Germany).
Results obtained from various experiments are recorded as mean±standard error of mean (SEM), and significance verification is determined using the student's T-test analysis method. The data were analyzed using one-way ANOVA to determine a statistically significant variance between each group for each final point measured, and statistical significance between each group was determined using the nonparametric Mann-Whitney test and Dunnett's multiple comparison test (IBM SPSS statistics version 19.0 statistic software, Inc, IBM, USA).

For data set [6], the system named is 3T3-L1 cells. The data set is described as follows: Fat accumulation, Oil Red O staining. It is filed as cell-based, mouse. The procedure:
3T3-L1 cells, which are preadipocytes of mice, are suspended at a concentration of 2×10^4 cells/ml using Dulbecco's Modified EaDCRT media (DMEM, Gibco) containing 10% of Bovine Calf Serum as a growth media (GM), and then inoculated into 24-well plates at 1 ml each, and then adipocytes were cultured for 3 days to become confluent. […] In order to measure lipid accumulation after inducing the adipocyte differentiation, it was measured using Oil red 0 staining analysis (Sigma-aldrich). To fix the cells, 1% formaldehyde (based on distilled water) was added and reacted at 4° C. for 1 hour, followed by washing with distilled water, and then stained with 500 μl of filtered Oil Red 0 solution at room temperature for 1 hour. Then, after washing with distilled water, 300 μl of 100% isopropyl alcohol was added to extract intracellular oil red 0, and the degree of color development was measured at 492 nm using a microplate measuring instrument.

Data set [7] in a line: Example 12 HFD mice: serum test. The data set is classed as in vivo, mouse. Particulars: serum of HFD mice, oral once daily for 10 weeks; chiisanogenin 50 mg/kg; Garcinia cambogia extract 200 mg/kg; combination 50 + 150 mg/kg; Met 50 mg/kg. The procedure:
The test drug was dispersed in 0.5% Carboxymethyl cellulose (CMC) and administered in a volume of 0.2 ml, and the drug was administered orally by force into the stomach using a metal Zonde for oral administration. Blood was collected by cardiac puncture to conduct a blood biochemical test after the end of the final experiment, and then plasma was separated by centrifugation at 3,000 rpm and 4° C. for 15 minutes within 30 minutes after blood collection, and then stored at −74° C. for blood chemistry and ELISA analysis. The contents of total cholesterol, high-density lipoprotein (HDL), low-density lipoprotein (LDL), triglyceride, FFA, glucose, and LDH, which are indicators of lipid content, were measured using an automated biochemical analyzer (Hitachi-720, Hitachi Medical, Japan). IGF-1 and Creatine were diluted in coating buffer, coated on microwells, and left overnight at 4° C. […] 100 μl of the TMB substrate was dispensed, left in the dark for 30 minutes, treated with 50 μl of the stop solution, and absorbance was measured at a wavelength of 450 nm using an ELISA reader. Results obtained from various experiments are recorded as mean±standard error of mean (SEM), and significance verification is determined using the student's T-test analysis method. […]

Data set [8] has as its system PPAR-gamma mRNA. The data set is described as follows: Example 12 HFD mice: adipose tissue PPAR-gamma mRNA analysis. The data set is classed as in vivo, mouse. The note with it: adipose tissue of HFD mice, oral once daily for 10 weeks, chiisanogenin 50 mg/kg, Garcinia cambogia extract 200 mg/kg, combination 50 + 150 mg/kg, Met 50 mg/kg. The procedure: The test drug was dispersed in 0.5% Carboxymethyl cellulose (CMC) and administered in a volume of 0.2 ml, and the drug was administered orally by force into the stomach using a metal Zonde for oral administration. RNA was extracted from tissues using RNAsolB (Tel-Test) solution, and cDNA and real-time PCR analysis were performed using One-step SYBR Green PCR kit (AB science). From the prepared cDNA, a FAM probe of [NT] ID NO: 16) sequence was used to amplify PPAR-gamma mRNA, and a VIC probe of [NT] ID NO: 15) sequence was used to amplify GAPDH mRNA as an intra control. Real time quantitative PCR was performed using the Applied Biosystems 7500 Real-Time PCR system (Applied Biosystems, USA). Results obtained from various experiments are recorded as mean±standard error of mean (SEM), and significance verification is determined using the student's T-test analysis method. The data were analyzed using one-way ANOVA to determine a statistically significant variance between each group for each final point measured, and statistical significance between each group was determined using the nonparametric Mann-Whitney test and Dunnett's multiple comparison test (IBM SPSS statistics version 19.0 statistic software, Inc, IBM, USA).

Setting [9] is: Table 6, mixture ratio 0:10, 25 μg/mL.
Where [10] appears, read: Mus musculus, 3T3-L1, read-out: Inhibition Rate (TG production).

Turning to `O=C(O)CC(O)(C(=O)O)C(O)C(=O)O` (centres unmarked) [Ca-HCA, hydroxy citric acid], the results for the “Glucose absorption rate (%, relative to 100 nM insulin treatment as 100%)” value in data set [1] (5 μg/mL) and in data set [1] (30 μg/mL) were 5% and 50%, respectively. In addition, the inhibition – broadly, the percentage by which the read-out fell short of the control – at 25 µg/mL in data set [2] (Mus musculus, 3T3-L1, Table 9, 25 μg/mL, read-out: Inhibition Rate (TG production)) worked out at 6.62 ± 0.98%. The inhibition at 50 µg/mL in data set [2] (Mus musculus, 3T3-L1, Table 9, 50 μg/mL, read-out: Inhibition Rate (TG production)) was 11.4 ± 0.88%. The “TG Production Rate (% relative to positive control)” value in data set [2] (Table 9, 25 μg/mL) is recorded as 94.51 ± 0.81%; in data set [2] (Table 9, 50 μg/mL), 90.54 ± 0.73%. Besides, the “Cytotoxicity (conclusion from Tables 3 to 5)” value in data set [3] is given as “not cytotoxic”. The “Cell Viability” value in data set [3] (12.5 μg/mL) was 113.20 ± 14.37%; in data set [3] (25 μg/mL), 115.37 ± 8.86%; in data set [3] (50 μg/mL), 86.24 ± 8.74%; in data set [3] (100 μg/mL), 88.65 ± 11.58%. Also, it took 27.6 µM to reach a half-maximal effect in data set [4] (EC50).
`C=C(C)[C@@H]1CC[C@]2(C(=O)O)CC[C@]3(C)[C@H](C[C@H]4OC(=O)C[C@@H](O)[C@]5(C)[C@@H]4[C@@]3(C)CC[C@H]5C(=C)C)[C@@H]12` [Chiisanogenin, chiisanogenin]: the “Inhibition Rate (OGTT)” value in data set [5] turned out to be 38%. Besides, the “OGTT (30 min-0 min, mg/dL)” value in data set [5] (glucose 1 g/kg) amounted to 127.4 ± 13.03 mg/dL. Besides, the inhibition at 10 µg/mL in data set [6] (Mus musculus, 3T3-L1, Table 7, 10 μg/mL, read-out: Inhibition Rate (fat accumulation)) worked out at 11.3 ± 1.47%; in data set [2] (setting [10]), 11.4 ± 5.34%. For the same compound, the “Fat Accumulation Rate (% relative to positive control)” value was 87.21 ± 4.82 % in data set [6] (setting [9]) and 95.13 ± 5.90% in data set [6] (Table 7, 10 μg/mL). Also, the “Inhibition Rate (fat accumulation)” value in data set [6] (setting [9]) is listed as 22.59 ± 7.34%. The “Glucose absorption rate (%, relative to 100 nM insulin treatment as 100%)” value is 1% in data set [1] (5 μg/mL) and 25% in data set [1] (15 μg/mL). Further, in data set [2] (setting [10]), the inhibition at 25 µg/mL stood at 6.47 ± 0.73%. Also, in data set [2] (setting [10]), the inhibition at 50 µg/mL is 22.8 ± 0.25%. Moreover, the “TG Production Rate (% relative to positive control)” value came out at 90.84 ± 4.21% in data set [2] (Table 8, 10 μg/mL); 94.63 ± 0.61% in data set [2] (Table 9, 25 μg/mL); 81.07 ± 0.20% in data set [2] (Table 9, 50 μg/mL). In addition, the “Cytotoxicity (conclusion from Tables 3 to 5)” value in data set [3] is “not cytotoxic”. Moreover, the “Cell Viability” value in data set [3] (10 μg/mL) is on record as 127.27 ± 18.60%; in data set [3] (12.5 μg/mL), 106.41 ± 3.40%; in data set [3] (50 μg/mL), 117.77 ± 9.59%; in data set [3] (100 μg/mL), 104.31 ± 9.72%. For the same compound, the “Creatin (mg/dL), mean ± standard error” value in data set [7] was found to be 0.635 ± 0.007 mg/dL. A half-maximal response in data set [4] (EC50) required 23.3 µM. In data set [8], the “PPAR-γ mRNA Inhibition Rate (%)” value came to 49%. The “PPAR-γ mRNA, mean ± standard error” value in data set [8] (real-time PCR vs GAPDH) turned out to be 2.134 ± 0.39.
